Source: patent publication US20240116985A1, “STAPLED PEPTIDES AND METHODS THEREOF” (priority 2020, published 2024)
pIC50: −log10 of the molar value. Where two headings read alike, the source gives them in different places.

Assays:
[1] = target: T1, full-length beta-Catenin (Uniprot ID P35222) (Homo sapiens, UniProt P35222); experiment: Fluorescence polarization IC50 (beta-catenin / 5FAM-TCF4 10-53 competition); format: binding; conditions: fluorescence polarization; read-out: beta-Catenin FP IC50
T1 construct: 10 nM full-length beta-Catenin (Uniprot ID P35222)
T1 sequence (P35222 1-781): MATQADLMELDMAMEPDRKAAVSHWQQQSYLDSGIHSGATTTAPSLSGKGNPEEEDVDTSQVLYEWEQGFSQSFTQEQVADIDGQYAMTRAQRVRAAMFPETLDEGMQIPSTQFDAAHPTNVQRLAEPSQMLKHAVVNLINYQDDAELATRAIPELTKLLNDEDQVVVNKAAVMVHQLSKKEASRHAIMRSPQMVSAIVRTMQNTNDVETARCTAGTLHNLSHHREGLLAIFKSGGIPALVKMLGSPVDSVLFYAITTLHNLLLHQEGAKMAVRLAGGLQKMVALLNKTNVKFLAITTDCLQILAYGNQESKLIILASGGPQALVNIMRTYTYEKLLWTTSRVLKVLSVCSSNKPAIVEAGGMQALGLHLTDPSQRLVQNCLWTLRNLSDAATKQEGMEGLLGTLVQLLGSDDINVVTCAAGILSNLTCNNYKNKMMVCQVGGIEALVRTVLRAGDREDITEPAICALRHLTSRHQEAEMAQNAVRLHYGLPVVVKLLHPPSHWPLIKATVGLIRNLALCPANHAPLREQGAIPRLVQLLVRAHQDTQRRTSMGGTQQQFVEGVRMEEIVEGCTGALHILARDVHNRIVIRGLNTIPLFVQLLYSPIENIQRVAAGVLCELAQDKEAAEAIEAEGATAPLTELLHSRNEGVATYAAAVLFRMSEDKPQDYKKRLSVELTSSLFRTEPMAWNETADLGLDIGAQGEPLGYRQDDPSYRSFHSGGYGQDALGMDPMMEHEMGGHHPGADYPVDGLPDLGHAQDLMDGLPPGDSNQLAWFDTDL

[2] = target: T2, beta-catenin/TCF4 engagement (Homo sapiens, UniProt P35222); experiment: Nano-BRET target engagement assay (B-cat-Halo & TCF4-Luc in HEK293 cells); format: cell-based; conditions: read-out: NanoBRET Abs IC50
T2 construct: expressed in transfected cells; host or cells: HEK293
T2 sequence (P35222 1-781): T1 sequence (P35222 1-781)

SMILES	pIC50 [1]	pIC50 ([2]; absolute IC50)	pIC50 [2]
CC(=O)N1CCC[C@]12CC=CCCCC1(CCCC=CCCCOC(=O)N3CC[C@@](C(=O)N[C@@H](Cc4ccsc4)C(=O)N[C@@H](Cc4csc5ccccc45)C(=O)N[C@H](CO)[C@@H](C)O)(C3)NC(=O)[C@H](Cc3ccccc3)NC(=O)[C@H](Cc3ccccc3)NC(=O)[C@H](C)NC(=O)[C@H](C)NC(=O)[C@H](Cc3ccccc3C(=O)O)NC(=O)[C@H](CC(=O)O)NC1=O)NC(=O)[C@H](CC(C)(C)C)NC(=O)[C@H](CC(=O)O)NC2=O (single isomer, unassigned) [I-1668, Ac-PL3-Asp-Npg-B5-Asp-2COOHF-Ala-Ala-Phe-Phe-PyrS2-3Thi-BztA-Thro1]	7.54	4.79	–
CC(=O)N1CCC[C@]12CC=CCCCC1(CCCC=CCCCCCC[C@@](C)(C(=O)N[C@@H](Cc3ccccc3)C(=O)N[C@@H](Cc3csc4ccccc34)C(=O)N[C@@H](CCC(N)=O)C(N)=O)NC(=O)[C@H](CCC(N)=O)NC(=O)[C@H](Cc3ccccc3)NC(=O)[C@H](C)NC(=O)[C@H](C)NC(=O)[C@H](CCC(=O)O)NC(=O)[C@H](CC(=O)O)NC1=O)NC(=O)[C@H](CCO)NC(=O)[C@H](CC(=O)O)NC2=O (stereo partly drawn) [I-1544, Ac-PL3-Asp-Hse-B5-Asp-Glu-Ala-Ala-Phe-Gln-S8-Phe-BztA-Gln-NH2]	7.21	< 4.70	–
CC(=O)N1CCC[C@]12CC=CCCCC1(CCCC=CCCCOC(=O)N3CC[C@@](C(=O)N[C@@H](Cc4ccccc4Cl)C(=O)N[C@@H](Cc4csc5ccccc45)C(=O)N[C@@H](CO)C(N)=O)(C3)NC(=O)[C@H](CC(C)C)NC(=O)[C@H](Cc3ccccc3)NC(=O)[C@H](C)NC(=O)[C@H](C)NC(=O)[C@H]([C@@H](C)O)NC(=O)[C@H](CC(=O)O)NC1=O)NC(=O)[C@H](CC(C)(C)C)NC(=O)[C@H](CC(=O)O)NC2=O (stereo partly drawn) [I-1172, Ac-PL3-Asp-Npg-B5-Asp-Thr-Ala-Ala-Phe-Leu-PyrS2-2C1F-BztA-Ser-NH2]	7.35	4.71	–
CC(=O)N1CCC[C@]12CC=CCCCC1(CCCC=CCCCOC(=O)N3CC[C@@](C(=O)N[C@@H](Cc4ccsc4)C(=O)N[C@@H](Cc4csc5ccccc45)C(=O)N[C@@H](Cc4ccccc4)C(N)=O)(C3)NC(=O)[C@H](CC(C)C)NC(=O)[C@H](Cc3ccccc3)NC(=O)[C@H](C)NC(=O)[C@H](C)NC(=O)[C@H](CC(=O)O)NC(=O)[C@H](CC(=O)O)NC1=O)NC(=O)[C@H](CC(C)(C)C)NC(=O)[C@H](CC(=O)O)NC2=O (stereo partly drawn) [I-1496, Ac-PL3-Asp-Npg-B5-Asp-Asp-Ala-Ala-Phe-Leu-PyrS2-3Thi-BztA-Phe-NH2]	7.29	5.03	–
CC(=O)N1CCC[C@]12CC=CCCCCC1(CCCCC=CCCCOC(=O)N3CC[C@@](C(=O)N[C@@H](Cc4ccccc4C(F)(F)F)C(=O)N[C@@H](Cc4csc5ccccc45)C(=O)N[C@@H](C)C(N)=O)(C3)NC(=O)[C@H](CC(C)C)NC(=O)[C@H](Cc3ccccc3)NC(=O)[C@H](C)NC(=O)[C@H](CCC(N)=O)NC(=O)[C@H](Cc3cccc(C(=O)O)c3)NC(=O)[C@H](CC(=O)O)NC1=O)NC(=O)[C@H](CC(C)(C)C)NC(=O)[C@H](CC(=O)O)NC2=O (stereo partly drawn) [I-2517, Ac-PL3-Asp-Npg-B6-Asp-3COOHF-Gln-Ala-Phe-Leu-PyrS2-2F3MeF-BztA-Ala-NH2]	7.21	4.52	–
C[C@@H]1NC(=O)[C@H](C)NC(=O)[C@H](CC(=O)O)NC(=O)[C@H](CC(=O)O)NC(=O)C2(CCCC=CCCCOC(=O)N3CC[C@@](C(=O)N[C@@H](Cc4ccsc4)C(=O)N[C@@H](Cc4csc5ccccc45)C(=O)N[C@@H](CCC(N)=O)C(N)=O)(C3)NC(=O)[C@H](CC(N)=O)NC(=O)[C@H](Cc3ccccc3)NC1=O)CCCC=CC[C@]1(CCCN1S(C)(=O)=O)C(=O)N[C@@H](CC(=O)O)C(=O)N[C@@H](CC(C)(C)C)C(=O)N2 (stereo partly drawn) [I-1218, MeSO2-PL3-Asp-Npg-B5-Asp-Asp-Ala-Ala-Phe-Asn-PyrS2-3Thi-BztA-Gln-NH2]	8.00	< 4.70	–
CC(=O)N1CCC[C@]12CC=CCCCC1(CCCC=CCCCOC(=O)N3CC[C@@](C(=O)N[C@@H](Cc4ccccc4C(F)(F)F)C(=O)N[C@@H](Cc4csc5ccccc45)C(=O)N[C@@H](CCC(=O)N4CCOCC4)C(N)=O)(C3)NC(=O)[C@H](CCC(=O)N3CCOCC3)NC(=O)[C@H](Cc3ccccc3)NC(=O)[C@H](C)NC(=O)[C@H](C)NC(=O)[C@H](Cc3cccc(C(=O)O)c3)NC(=O)[C@H](CC(=O)O)NC1=O)NC(=O)[C@H](CC(C)(C)C)NC(=O)[C@H](CC(=O)O)NC2=O (stereo partly drawn) [I-2546, Ac-PL3-Asp-Npg-B5-Asp-3COOHF-Ala-Ala-Phe-MorphGln-PyrS2-2F3MeF-BztA-MorphGln-NH2]	7.89	5.46	–
CCN(CC(=O)O)C[C@@H]1NC(=O)[C@H](CC(=O)O)NC(=O)C2(CCCC=CCCCOC(=O)N3CC[C@@](C(=O)N[C@@H](Cc4ccccc4Cl)C(=O)N[C@@H](Cc4csc5ccccc45)C(=O)N[C@@H](CCC(N)=O)C(N)=O)(C3)NC(=O)[C@H](CC(N)=O)NC(=O)[C@H](Cc3ccccc3)NC(=O)[C@H](C)NC(=O)[C@H](C)NC1=O)CCCC=CC[C@]1(CCCN1C(C)=O)C(=O)N[C@@H](CC(=O)O)C(=O)N[C@@H](CC(C)(C)C)C(=O)N2 (stereo partly drawn) [I-1622, Ac-PL3-Asp-Npg-B5-Asp-[Et]GA-Ala-Ala-Phe-Asn-PyrS2-2C1F-BztA-Gln-NH2]	7.89	< 4.70	–
CC(=O)N1CCC[C@]12CC=CCCCC1(CCCC=CCCCOC(=O)N3CC[C@@](C(=O)N[C@@H](Cc4ccsc4)C(=O)N[C@@H](Cc4csc5ccccc45)C(=O)N[C@@H](CCC(N)=O)C(N)=O)(C3)NC(=O)[C@H](CCO)NC(=O)[C@H](Cc3cccc(C(=O)O)c3)NC(=O)[C@H](C)NC(=O)[C@H](C)NC(=O)[C@H](Cc3c[nH]c4ccccc34)NC(=O)[C@H](CC(=O)O)NC1=O)NC(=O)[C@H](CC(C)(C)C)NC(=O)[C@H](CC(=O)O)NC2=O (stereo partly drawn) [I-2128, Ac-PL3-Asp-Npg-B5-Asp-Trp-Ala-Ala-3COOHF-Hse-PyrS2-3Thi-BztA-Gln-NH2]	7.54	–	4.57
CNC(=O)C[C@H](NC(=O)[C@H](Cc1csc2ccccc12)NC(=O)[C@H](Cc1ccsc1)NC(=O)[C@]12CCN(C1)C(=O)OCCCC=CCCCC1(CCCC=CC[C@]3(CCCN3C(C)=O)C(=O)N[C@@H](CC(=O)O)C(=O)N[C@@H](CC(C)(C)C)C(=O)N1)C(=O)N[C@@H](CC(N)=O)C(=O)N[C@@H]([C@@H](C)O)C(=O)NC(C)(C)C(=O)N[C@@H](C)C(=O)N[C@@H](Cc1ccccc1)C(=O)N[C@@H](CC(N)=O)C(=O)N2)C(N)=O (stereo partly drawn) [I-2495, Ac-PL3-Asp-Npg-B5-Asn-Thr-Aib-Ala-Phe-Asn-PyrS2-3Thi-BztA-MeAsn-NH2]	7.02	< 4.70	–
CC(=O)N1CCC[C@]12CC=CCCCC1(CCCC=CCCCOC(=O)N3CC[C@@](C(=O)N[C@@H](Cc4ccsc4)C(=O)N[C@@H](Cc4csc5ccccc45)C(=O)N[C@@H](CCC(N)=O)C(N)=O)(C3)NC(=O)[C@H](CC(C)C)NC(=O)[C@H](Cc3ccccc3)NC(=O)[C@H](C)NC(=O)[C@H](C)NC(=O)[C@H](CCN(CC(=O)O)Cc3ccccc3)NC(=O)[C@H](CC(=O)O)NC1=O)NC(=O)[C@H](CC(C)(C)C)NC(=O)[C@H](CC(=O)O)NC2=O (stereo partly drawn) [I-1834, Ac-PL3-Asp-Npg-B5-Asp-[Bn]GAbu-Ala-Ala-Phe-Leu-PyrS2-3Thi-BztA-Gln-NH2]	7.46	4.73	–
CC(=O)N1CCC[C@]12CC=CCCCC1(CCCC=CCCCOC(=O)N3CC[C@@](C(=O)N[C@@H](Cc4ccsc4)C(=O)N[C@@H](Cc4csc5ccccc45)C(=O)N[C@@H](CCC(N)=O)C(N)=O)(C3)NC(=O)[C@H](CC(N)=O)NC(=O)[C@H](Cc3cccc(C(=O)O)c3)NC(=O)[C@H](C)NC(=O)[C@H](C)NC(=O)[C@H](CCc3ccc(O)cc3)NC(=O)[C@H](CC(=O)O)NC1=O)NC(=O)[C@H](CC(C)(C)C)NC(=O)[C@H](CC(=O)O)NC2=O (stereo partly drawn) [I-2115, Ac-PL3-Asp-Npg-B5-Asp-hTyr-Ala-Ala-3COOHF-Asn-PyrS2-3Thi-BztA-Gln-NH2]	7.54	–	< 4.70
CC(=O)N1CCC[C@]12CC=CCCCC1(CCCC=CCCCOC(=O)N3CC[C@@](C(=O)N[C@@H](Cc4ccsc4)C(=O)N[C@@H](Cc4csc5ccccc45)C(=O)N[C@@H](Cc4ccccc4C(N)=O)C(N)=O)(C3)NC(=O)[C@H](CC(C)C)NC(=O)[C@H](Cc3ccccc3)NC(=O)[C@H](C)NC(=O)[C@H](C)NC(=O)[C@H](CN(CC(=O)O)CC(F)(F)F)NC(=O)[C@H](CC(=O)O)NC1=O)NC(=O)[C@H](CC(C)(C)C)NC(=O)[C@H](CC(=O)O)NC2=O (stereo partly drawn) [I-1707, Ac-PL3-Asp-Npg-B5-Asp-TfeGA-Ala-Ala-Phe-Leu-PyrS2-3Thi-BztA-2cbmf-NH2]	7.72	5.21	–
